Molecular target: T1, SARS-CoV-2 Mpro (Mpro(S2), 3CLpro) (Severe acute respiratory syndrome coronavirus 2, UniProt P0DTD1)
T1 construct: gene rep; mature Mpro (nsp5) cut from polyprotein pp1a/pp1ab, human codon-optimized, fused N-terminally to TetR-MproCSOPT-VP64 (pNF167), expressed in HEK293T; TAGS plasmids OK425851-OK425853 (not assigned singly)
Type: cell-based

CC(C)(C)NC(=O)N[C@H](C(=O)N1C[C@H]2[C@@H]([C@H]1C(=O)NC(CC1CCC1)C(=O)C(N)=O)C2(C)C)C(C)(C)C (stereo partly shown) [Boceprevir]
Mpro-TAGS nanoLuc gain-of-signal reporter in HEK293T cells, 24 h: GRL-0496 and Boceprevir only slightly induced gene expression
